Experimental data as given in patent US7517517B2 (Janssen Pharmaceutica N.V., priority 2002, dated 2009).

Target: T1, cloned rat mGlu1 receptor (Rattus norvegicus, UniProt P23385)
T1 construct: expressed in transfected cells; host or cells: CHO cells
Test: Signal transduction at the cloned rat mGlu1 receptor in CHO cells (glutamate-induced Ca2+ rise, FLIPR)
Format: cell-based

[1] = inhibition of glutamate-induced intracellular Ca2+ rise, CHO cells expressing mGlu1 receptor, compounds with pIC50 between 7 and 8
[2] = 50% inhibition of the glutamate-induced intracellular Ca2+ rise, CHO cells, FLIPR

T1 sequence (P23385 19-1199): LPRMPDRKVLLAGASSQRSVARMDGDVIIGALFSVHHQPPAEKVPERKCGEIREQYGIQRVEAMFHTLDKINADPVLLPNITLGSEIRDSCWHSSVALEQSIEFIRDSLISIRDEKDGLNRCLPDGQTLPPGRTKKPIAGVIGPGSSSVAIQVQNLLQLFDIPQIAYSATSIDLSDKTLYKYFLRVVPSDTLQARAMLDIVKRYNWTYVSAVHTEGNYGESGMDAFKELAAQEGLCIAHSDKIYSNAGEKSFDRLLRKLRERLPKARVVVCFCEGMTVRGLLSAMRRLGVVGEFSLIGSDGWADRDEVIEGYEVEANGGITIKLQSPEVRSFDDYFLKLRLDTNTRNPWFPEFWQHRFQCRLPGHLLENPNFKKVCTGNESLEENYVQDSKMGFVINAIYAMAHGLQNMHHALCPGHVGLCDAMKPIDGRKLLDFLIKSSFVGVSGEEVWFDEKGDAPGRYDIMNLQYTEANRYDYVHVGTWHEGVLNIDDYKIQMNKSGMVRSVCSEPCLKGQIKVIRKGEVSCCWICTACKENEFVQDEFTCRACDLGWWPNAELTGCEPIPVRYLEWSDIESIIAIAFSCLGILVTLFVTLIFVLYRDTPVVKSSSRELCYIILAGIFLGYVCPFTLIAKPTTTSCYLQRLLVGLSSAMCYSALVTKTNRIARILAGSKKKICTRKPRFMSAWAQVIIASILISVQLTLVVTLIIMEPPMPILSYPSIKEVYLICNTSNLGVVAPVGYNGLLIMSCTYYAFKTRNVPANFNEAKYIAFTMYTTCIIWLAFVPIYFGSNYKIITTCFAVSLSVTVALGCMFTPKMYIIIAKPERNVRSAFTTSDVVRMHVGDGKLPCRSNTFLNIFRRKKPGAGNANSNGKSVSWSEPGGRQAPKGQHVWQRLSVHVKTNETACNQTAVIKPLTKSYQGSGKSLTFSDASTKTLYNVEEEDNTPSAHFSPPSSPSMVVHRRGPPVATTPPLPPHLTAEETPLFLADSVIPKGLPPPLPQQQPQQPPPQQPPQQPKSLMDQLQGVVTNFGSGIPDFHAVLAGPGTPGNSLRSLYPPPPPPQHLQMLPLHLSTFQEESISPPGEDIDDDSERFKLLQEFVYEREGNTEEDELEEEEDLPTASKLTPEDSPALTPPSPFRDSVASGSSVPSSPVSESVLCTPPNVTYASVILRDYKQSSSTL

SMILES	IC50 [1]	IC50 [2]
CCc1cc2cc(C(=O)[C@H]3CCC[C@H](OC)C3)ccc2nc1Cl (relative stereo) [Compound 239]	20 nM	
CCc1cc2cc(C(=O)C3(F)CCC(OC)CC3)ccc2nc1Cl (single isomer, unassigned) [Compound 220]	13.5 nM	
CCc1cc2cc(C(=O)C3(F)CCC(OC)CC3)ccc2nc1Cl (single isomer, unassigned) [Compound 221]	61.7 nM	
CCc1cc2cc(C(=O)[C@H]3CC[C@@H](OC)CC3)ccc2[nH]c1=S [Compound 36]	100 nM	
COc1ccc2cc(C(=O)[C@H]3CC[C@@H](OC)CC3)ccc2n1 [Compound 91]	37.2 nM	
CCCc1cc2cc(C(=O)[C@H]3CC[C@@H](OC)CC3)ccc2nc1OC [Compound 97]	83.2 nM	
COc1nc2ccc(C(=O)[C@H]3CC[C@@H](OC)CC3)cc2cc1C [Compound 98]	26.9 nM	
CCc1c(C)nc2ccc(C(=O)[C@H]3CC[C@@H](OC)CC3)cc2c1CC [Compound 108]	56.2 nM	
CCc1cc2cc(C(=O)C3CC=CCC3)ccc2nc1C (stereo not shown) [Compound 112]	89.1 nM	
CCO[C@H]1CC[C@@H](C(=O)c2ccc3nc(C)c(CC)cc3c2)CC1 [Compound 115]	22.9 nM	
CCc1cc2cc(C(=O)Cc3ccccc3)ccc2nc1Cl [Compound 117]	44.7 nM	
CCc1cc2cc(C(=O)[C@H]3CC[C@@H](OC)CC3)ccc2nc1N(C)C [Compound 128]	30.2 nM	
CCc1cc2cc(C(=O)[C@H]3CC[C@H](OC)CC3)ccc2nc1C [Compound 131]	64.6 nM	
COC1CCC(C(=O)c2ccc3nc4c(cc3c2)CCCO4)CC1 (stereo not shown) [Compound 174]		3.24 nM
CO[C@H]1CC[C@H](C(=O)c2ccc3nc4c(cc3c2)CCCO4)CC1 [Compound 175]	19.5 nM	
COC1CCC(C(=O)c2ccc3nc4c(cc3c2)CCCS4)CC1 (stereo not shown) [Compound 176]		4.68 nM
CO[C@H]1CC[C@H](C(=O)c2ccc3nc4c(cc3c2)CCCS4)CC1 [Compound 178]	12 nM	
CCc1cc2cc(C(=O)[C@H]3CC[C@@H](OC)CC3)ccc2nc1NC(=O)c1ccc(=O)[nH]c1 [Compound 191]	69.2 nM	
CCc1cc2cc(C(=O)[C@H]3CC[C@@H](OC)CC3)ccc2nc1NC(=O)C1CCN(C(C)=O)CC1 [Compound 193]	61.7 nM	
CCc1cc2cc(C(=O)C3CCC(OC)CC3)ccc2nc1NC(=O)C12CC3CC(CC(C3)C1)C2 (stereo not shown) [Compound 199]	85.1 nM	
CCc1cc2cc(C(=O)C3CCC(OC)CC3)c(C)cc2nc1Cl (stereo not shown) [Compound 210]		4.84 nM
CCc1cc2cc(C(=O)[C@H]3CC[C@H](OC)CC3)c(C)cc2[nH]c1=O [Compound 213]	20 nM	

SMILES	IC50 [1]	IC50 [2]
CCc1cc2cc(C(=O)C3CCC(OC)CC3)c(C)cc2nc1C (stereo not shown) [Compound 214]		5.85 nM
CCc1cc2cc(C(=O)C3(F)CCC(OC)CC3)ccc2nc1C (stereo not shown) [Compound 224]	16.6 nM	
CCc1cc2cc(C(=O)Cc3ccccc3OC)ccc2nc1C [Compound 236]	67.6 nM	
CCc1cc2cc(C(=O)Cc3ccccc3)ccc2nc1C [Compound 237]		9.77 nM
CO[C@H]1CC[C@@H](C(=O)c2ccc3nc(C)ccc3c2)CC1 [Compound 238]	16.2 nM	
CCc1cc2cc(C(=O)C3CCCC(OC)C3)ccc2nc1C (stereo not shown) [Compound 241]	21.4 nM	
CCc1cc2cc(C(=O)C3(C)CCC(OC)CC3)ccc2nc1C (stereo not shown) [Compound 242]	17.4 nM	
CCc1cc2cc(C(=O)CC3CCCCC34OCCO4)ccc2nc1Cl (stereo not shown) [Compound 243]	51.3 nM	
CCCO[C@H]1CC[C@@H](C(=O)c2ccc3nc(C)c(CC)cc3c2)CC1 [Compound 255]	58.9 nM	
CCc1cc2cc(C(=O)Cc3ccc(F)c(F)c3)ccc2nc1C [Compound 277]	36.3 nM	
CCc1cc2cc(C(=O)C3CC4CC3CC4O)ccc2nc1Cl (stereo not shown) [Compound 280]	45.7 nM	
CCc1cc2cc(C(=O)C3CC4CC(O)C3C4)ccc2nc1Cl (stereo not shown) [Compound 281]	23.4 nM	
CCc1cc2cc(C(=O)C3(c4ccccc4)CC3)ccc2nc1C [Compound 283]	95.5 nM	
COCc1cc2cc(C(=O)[C@H]3CC[C@H](OC)CC3)ccc2nc1C [Compound 286]	93.3 nM	
CO[C@H]1CC[C@@H](C(=O)c2ccc3nc(C)c(CN(C)C)cc3c2)CC1 [Compound 287]	49 nM	
CCc1cc2cc(C(=O)Cc3ccccc3)ccc2nc1N [Compound 289]	53.7 nM	
CCCc1cc2cc(C(=O)Cc3ccccc3)ccc2nc1C [Compound 290]	87.1 nM	
CCCc1cc2cc(C(=O)[C@H]3CC[C@@H](OC)CC3)ccc2nc1Cl [Compound 291]	44.7 nM	
CCc1cc2cc(C(=O)Cc3ccsc3)ccc2nc1Cl [Compound 296]	60.3 nM	
CCc1cc2cc(C(=O)Cc3cccs3)ccc2nc1C [Compound 298]	33.1 nM	
CCc1cc2cc(C(=O)C34CCC(CC3)C4)ccc2nc1C [Compound 300]	83.2 nM	
CCc1cc2cc(C(=O)CC3CC4CCC3C4)ccc2nc1C (stereo not shown) [Compound 303]	60.3 nM	

SMILES	IC50 [1]	IC50 [2]
CCCc1cc2cc(C(=O)CC3CC4CCC3C4)ccc2nc1C (stereo not shown) [Compound 307]	77.6 nM	
O=C(CC1CC2CCC1C2)c1ccc2nc(Cl)ccc2c1 (stereo not shown) [Compound 313]	44.7 nM	
CCCc1cc2cc(C(=O)C3CC4CCC3C4)ccc2nc1C (stereo not shown) [Compound 318]	95.5 nM	
CCc1cc2cc(C(=O)C3CCC(OC)CC3)ccc2nc1NC(=O)c1ccc(OC)cc1 (stereo not shown) [Compound 323]	52.5 nM	
CCOCC(=O)Nc1nc2ccc(C(=O)C3CCC(OC)CC3)cc2cc1CC (stereo not shown) [Compound 326]	38.9 nM	
CCc1cc2cc(C(=O)C3CCC(OC)CC3)ccc2nc1NC(=O)CSCc1ccccc1 (stereo not shown) [Compound 332]	67.6 nM	
CCc1cc2cc(C(=O)C3CCC(OC)CC3)ccc2nc1NC(=O)C1CCN(C(C)=O)CC1 (stereo not shown) [Compound 333]	38.9 nM	
CCc1cc2cc(C(=O)C3CCC(OC)CC3)ccc2nc1NC(=O)c1ccc(=O)[nH]c1 (stereo not shown) [Compound 334]	11.2 nM	
CCc1cc2cc(C(=O)C3CCC(OC)CC3)ccc2nc1NC(=O)CCSC (stereo not shown) [Compound 338]	12.3 nM	
CCc1cc2cc(C(=O)C3CCC(OC)CC3)ccc2nc1NC(=O)CCCc1ccc(OC)c(OC)c1 (stereo not shown) [Compound 341]	14.8 nM	
CCc1cc2cc(C(=O)C3CCC(OC)CC3)ccc2nc1NC(=O)C1CCC(OC)CC1 (stereo not shown) [Compound 343]	46.8 nM	
CCc1cc2cc(C(=O)C3CCC(OC)CC3)ccc2nc1NC(=O)C1CCCCC1 (stereo not shown) [Compound 344]	30.2 nM	
CCc1cc2cc(C(=O)C3CCC(OC)CC3)ccc2nc1NC(=O)CCCC1CCCCC1 (stereo not shown) [Compound 346]	18.2 nM	
CCc1cc2cc(C(=O)C3CCC(OC)CC3)ccc2nc1NC(=O)C1CCCO1 (stereo not shown) [Compound 356]	38 nM	
CCc1cc2cc(C(=O)C3CCC(OC)CC3)ccc2nc1NC(=O)Nc1ccc(N(C)C)cc1 (stereo not shown) [Compound 369]	39.8 nM	
CCc1cc2cc(C(=O)C3CCC(OC)CC3)ccc2nc1NC(=O)Nc1ccccc1SC (stereo not shown) [Compound 373]	56.2 nM	
CO[C@H]1CC[C@@H](C(=O)c2ccc3nc4c(cc3c2)CCS4)CC1 [Compound 416]		2.59 nM
CO[C@H]1CC[C@H](C(=O)c2ccc3nc4c(cc3c2)CCS4)CC1 [Compound 418]		9.02 nM
CCc1cc2cc(C(=O)[C@H]3CC[C@@H](OC)CC3)c(C)cc2[nH]c1=O [Compound 419]		8.61 nM
COC1CCC(C(=O)c2ccc3nc4c(cc3c2)CCCC4)CC1 (stereo not shown) [Compound 420]		7.33 nM
